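Assay format: 96-well plates, 48-hour exposure. Abbreviation: GI50, concentration required for 50% inhibition of growth.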 The source made the active and inactive calls. No stated cut-off is given here; in the data, active = GI50 up to about 1.1 µM and inactive = higher.

Some test systems named below: M14; SNB-19; SK-MEL-28; UACC-257; NCI-H23; IGROV-1; MOLT-4; OVCAR-8; UO-31; TK-10; KM12; CCRF-CEM; RPMI-8226; K562; SK-OV-3; HCT-15; SW-620; HL-60; SK-MEL-5; U-251.
Common to all, as to assay: NCI tumour cell line growth inhibition, 48 h

On to `COc1ccccc1-c1cc(O)c2ccc(C)nc2n1`, for which the GI50 is 98.2 µM (inactive) in the assay with M14; > 100 µM (inactive) in the assay with SNB-19; > 100 µM (inactive) with SK-MEL-28; > 100 µM (inactive) with UACC-257; > 100 µM (inactive) in the assay with NCI-H23; 40.6 µM (inactive) in the assay with IGROV-1. The GI50 in the assay with MOLT-4 was > 100 µM (inactive); in the assay with OVCAR-8 it was > 100 µM (inactive); in the assay with UO-31, > 100 µM (inactive); in the assay with TK-10, > 100 µM (inactive); with KM12, 42.6 µM (inactive); in the assay on CCRF-CEM, > 100 µM (inactive). In addition, the GI50 is > 100 µM (inactive) in the assay with RPMI-8226; 58.9 µM (inactive) with K562; > 100 µM (inactive) in the assay on SK-OV-3; 43.4 µM with HCT-15; 50.9 µM (inactive) in the assay on SW-620.

On to `Cc1ccc(S(=O)(=O)NCCCSCCO)cc1`, for which the GI50 in the assay with M14 is 28.6 µM (inactive); in the assay on SNB-19 it was 9.04 µM (inactive); with SK-MEL-28 it was > 100 µM (inactive); in the assay on UACC-257, 44.1 µM (inactive); in the assay with NCI-H23, 25.6 µM (inactive); in the assay on HL-60, 26.1 µM (inactive). Moreover, the GI50 is 56.5 µM (inactive) in the assay with MOLT-4; 13.9 µM (inactive) with SK-MEL-5; 57.8 µM (inactive) in the assay on OVCAR-8; > 100 µM (inactive) in the assay with UO-31; 90.8 µM (inactive) in the assay on TK-10; 20.6 µM (inactive) in the assay with KM12. For the same molecule, the GI50 in the assay on U-251 is 8.26 µM (inactive); in the assay with CCRF-CEM it was 33.3 µM (inactive); in the assay on K562, 38.4 µM (inactive); in the assay with SK-OV-3, > 100 µM (inactive); with HCT-15, over 100 µM; with SW-620, 89.7 µM (inactive).

On to `COc1cc(O)c2c(=O)c(O)c(-c3ccc(O)c(O)c3)oc2c1` [RHAMNETIN], for which the GI50 was 5.15 µM (inactive) in the assay with M14; 12.2 µM (inactive) in the assay with SNB-19; 6.76 µM (inactive) with SK-MEL-28; 13 µM (inactive) with UACC-257; 2.78 µM (inactive) in the assay with HL-60; 40.3 µM (inactive) in the assay with IGROV-1. Also, the GI50 with MOLT-4 is 6.95 µM (inactive); in the assay with SK-MEL-5, 10.5 µM (inactive); in the assay with OVCAR-8, 10.7 µM (inactive); in the assay with UO-31, 6.05 µM (inactive); in the assay with TK-10, 21.4 µM (inactive); in the assay on U-251, 4.86 µM (inactive). In addition, the GI50 in the assay with CCRF-CEM is 3.61 µM (inactive); in the assay with RPMI-8226, 6.73 µM (inactive); in the assay with K562, 9.53 µM (inactive); with SK-OV-3, 20 µM (inactive); with HCT-15 it was 8.04 µM; in the assay on SW-620, 10.8 µM (inactive).

With `CCN(CC)CCC(=O)c1ccccc1`, the GI50 is 16.8 µM (inactive) in the assay on M14; > 100 µM (inactive) in the assay with SNB-19; 16.9 µM (inactive) in the assay with SK-MEL-28; 24.2 µM (inactive) in the assay with UACC-257; 19.1 µM (inactive) with NCI-H23; 12.6 µM (inactive) with HL-60. The GI50 was > 100 µM (inactive) in the assay on IGROV-1; 19.2 µM (inactive) in the assay with MOLT-4; 91 µM (inactive) in the assay with SK-MEL-5; 24.2 µM (inactive) in the assay with OVCAR-8; 31.3 µM (inactive) in the assay with UO-31; 21.3 µM (inactive) in the assay on TK-10. Also, the GI50 in the assay with KM12 is 43.4 µM (inactive); in the assay on U-251 it was 23.3 µM (inactive); with CCRF-CEM, 6.21 µM (inactive); in the assay with RPMI-8226 it was 2.85 µM (inactive); in the assay with K562, 7.45 µM (inactive); in the assay with HCT-15, 20.1 µM. Moreover, the GI50 in the assay with SW-620 was 19.6 µM (inactive).

Values taken from ChEMBL document CHEMBL1201862, “PubChem BioAssay data set” (2004).
